# Test results published in article PMC11702208 (RSC Advances, 2025).
# Values joined by “and” are separate entries in the source; they are usually repeats but may differ in a detail not shown here. Equal entries are not always repeated. Where two headings read alike, the source gives them in different places.
# Legend:
# [1] = test system: HS 578T; experiment: NCI cytotoxicity screen; format: cell-based, human
# [2] = test system: ACHN; experiment: NCI cytotoxicity screen; format: cell-based, human
# [3] = test system: SK-OV-3; experiment: NCI cytotoxicity screen; format: cell-based, human
# [4] = test system: MOLT-4; experiment: NCI cytotoxicity screen; format: cell-based, human
# [5] = test system: NCI-H522; experiment: NCI cytotoxicity screen; format: cell-based, human
# [6] = test system: SK-MEL-28; experiment: NCI cytotoxicity screen; format: cell-based, human
# [7] = test system: M14; experiment: NCI cytotoxicity screen; format: cell-based, human
# [8] = test system: A498; experiment: NCI cytotoxicity screen; format: cell-based, human; settings: Homo sapiens, A498
# [9] = test system: 786-0; experiment: NCI cytotoxicity screen; format: cell-based, human
# [10] = test system: U251; experiment: NCI cytotoxicity screen; format: cell-based, human; settings: U-251
# [11] = test system: SK-MEL-5; experiment: NCI cytotoxicity screen; format: cell-based, human
# [12] = test system: Melanoma subpanel tumor cell lines; experiment: NCI cytotoxicity screen, subpanel; format: cell-based, human
# [13] = test system: Breast cancer subpanel tumor cell lines; experiment: NCI cytotoxicity screen, subpanel; format: cell-based, human
# [14] = test system: KM12; experiment: NCI cytotoxicity screen; format: cell-based, human
# [15] = test system: RXF 393; experiment: NCI cytotoxicity screen; format: cell-based, human
# [16] = test system: CCRF-CEM; experiment: NCI cytotoxicity screen; format: cell-based, human
# [17] = test system: Renal cancer subpanel tumor cell lines; experiment: NCI cytotoxicity screen, subpanel; format: cell-based, human
# [18] = test system: LOX IMVI; experiment: NCI cytotoxicity screen; format: cell-based, human
# [19] = test system: UACC-257; experiment: NCI cytotoxicity screen; format: cell-based, human
# [20] = test system: DU-145; experiment: NCI cytotoxicity screen; format: cell-based, human
# [21] = test system: 59 cancer cell lines; experiment: NCI cytotoxicity screen, full panel; format: cell-based, human; settings: for CC50: read-out: LC50 MG_MID
# [22] = test system: A549/ATCC; experiment: NCI cytotoxicity screen; format: cell-based, human
# [23] = test system: RPMI-8226; experiment: NCI cytotoxicity screen; format: cell-based, human
# [24] = test system: Leukemia subpanel tumor cell lines; experiment: NCI cytotoxicity screen, subpanel; format: cell-based, human
# [25] = test system: Ovarian cancer subpanel tumor cell lines; experiment: NCI cytotoxicity screen, subpanel; format: cell-based, human
# [26] = molecular target: HER2 (Homo sapiens, UniProt P04626); experiment: HER2 tyrosine kinase assay; format: biochemical; settings: IC50 HER2 inhibition
# Chain of HER2 (P04626 23-1255): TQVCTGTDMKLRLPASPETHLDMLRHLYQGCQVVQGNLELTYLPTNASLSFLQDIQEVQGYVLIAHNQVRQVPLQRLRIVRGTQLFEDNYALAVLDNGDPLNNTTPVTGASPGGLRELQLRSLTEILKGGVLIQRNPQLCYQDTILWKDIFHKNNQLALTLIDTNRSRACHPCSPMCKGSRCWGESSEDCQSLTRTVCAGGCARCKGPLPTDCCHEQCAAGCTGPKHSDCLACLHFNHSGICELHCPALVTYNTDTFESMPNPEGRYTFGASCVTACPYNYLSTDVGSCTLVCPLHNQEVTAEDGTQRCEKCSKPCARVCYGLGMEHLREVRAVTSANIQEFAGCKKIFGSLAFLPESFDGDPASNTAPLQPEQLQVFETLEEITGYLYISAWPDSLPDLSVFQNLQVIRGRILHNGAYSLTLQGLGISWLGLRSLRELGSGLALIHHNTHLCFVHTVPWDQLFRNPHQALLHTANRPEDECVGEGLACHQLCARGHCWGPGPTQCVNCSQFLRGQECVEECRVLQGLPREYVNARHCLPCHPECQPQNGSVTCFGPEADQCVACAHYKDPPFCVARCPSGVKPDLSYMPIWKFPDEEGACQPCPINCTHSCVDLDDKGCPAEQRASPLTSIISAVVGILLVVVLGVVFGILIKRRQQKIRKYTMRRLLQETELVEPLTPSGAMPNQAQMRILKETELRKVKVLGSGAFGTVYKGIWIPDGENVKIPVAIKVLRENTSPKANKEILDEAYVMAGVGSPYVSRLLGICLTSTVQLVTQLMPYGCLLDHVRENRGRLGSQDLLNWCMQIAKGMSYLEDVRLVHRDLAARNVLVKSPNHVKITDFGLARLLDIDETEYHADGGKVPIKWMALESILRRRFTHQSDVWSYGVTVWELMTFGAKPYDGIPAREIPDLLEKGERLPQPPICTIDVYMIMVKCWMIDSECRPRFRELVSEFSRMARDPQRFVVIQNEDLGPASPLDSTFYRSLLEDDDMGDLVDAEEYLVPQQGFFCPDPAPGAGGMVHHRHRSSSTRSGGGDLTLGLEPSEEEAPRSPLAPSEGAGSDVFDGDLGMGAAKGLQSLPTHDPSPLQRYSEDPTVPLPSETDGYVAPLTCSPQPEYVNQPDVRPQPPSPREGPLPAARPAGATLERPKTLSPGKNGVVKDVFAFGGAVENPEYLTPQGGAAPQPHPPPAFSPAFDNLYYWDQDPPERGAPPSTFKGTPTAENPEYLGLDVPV
# [27] = test system: HL-60(TB); settings: 10.0 μM one dose
# [28] = test system: K-562; settings: 10.0 μM one dose
# [29] = test system: MOLT4 cells; experiment: Cell cycle analysis; format: cell-based; settings: compound at IC50 concentration
# [30] = molecular target: CDK9 (Homo sapiens, UniProt P50750); experiment: biochemical; settings: IC50 CDK9 inhibition
# Chain of CDK9 (P50750 whole entry): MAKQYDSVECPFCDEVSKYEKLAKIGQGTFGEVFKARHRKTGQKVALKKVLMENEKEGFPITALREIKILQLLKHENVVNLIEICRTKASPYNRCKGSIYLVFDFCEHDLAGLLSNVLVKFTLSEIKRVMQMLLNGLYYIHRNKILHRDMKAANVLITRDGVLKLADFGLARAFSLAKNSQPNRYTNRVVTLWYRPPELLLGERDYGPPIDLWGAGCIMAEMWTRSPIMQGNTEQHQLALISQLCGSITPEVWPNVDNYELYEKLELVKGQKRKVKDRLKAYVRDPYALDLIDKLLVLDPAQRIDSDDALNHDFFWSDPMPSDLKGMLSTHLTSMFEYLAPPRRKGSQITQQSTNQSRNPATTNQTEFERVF
# Chain of CDK9 (O60563 whole entry partner): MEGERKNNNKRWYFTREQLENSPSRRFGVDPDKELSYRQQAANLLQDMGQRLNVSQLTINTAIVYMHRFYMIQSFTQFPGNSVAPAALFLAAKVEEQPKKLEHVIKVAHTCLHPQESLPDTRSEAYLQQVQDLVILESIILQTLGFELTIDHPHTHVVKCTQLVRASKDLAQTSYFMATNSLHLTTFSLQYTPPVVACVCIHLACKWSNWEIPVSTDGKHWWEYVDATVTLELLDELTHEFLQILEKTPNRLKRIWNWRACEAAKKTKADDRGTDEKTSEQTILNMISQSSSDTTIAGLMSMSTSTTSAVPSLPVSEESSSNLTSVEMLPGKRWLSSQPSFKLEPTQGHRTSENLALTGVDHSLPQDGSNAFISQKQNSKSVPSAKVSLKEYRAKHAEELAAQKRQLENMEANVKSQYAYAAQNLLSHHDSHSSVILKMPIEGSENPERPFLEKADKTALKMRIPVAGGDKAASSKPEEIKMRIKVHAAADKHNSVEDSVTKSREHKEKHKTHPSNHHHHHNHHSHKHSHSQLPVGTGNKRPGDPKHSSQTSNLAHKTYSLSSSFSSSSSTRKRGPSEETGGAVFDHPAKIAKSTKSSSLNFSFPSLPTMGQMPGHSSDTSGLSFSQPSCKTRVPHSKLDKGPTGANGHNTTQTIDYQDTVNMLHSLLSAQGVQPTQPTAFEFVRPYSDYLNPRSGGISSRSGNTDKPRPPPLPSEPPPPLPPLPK
# [31] = molecular target: EGFR (Homo sapiens, UniProt P00533); experiment: biochemical; settings: IC50 EGFR inhibition
# Chain of EGFR (P00533 25-1210): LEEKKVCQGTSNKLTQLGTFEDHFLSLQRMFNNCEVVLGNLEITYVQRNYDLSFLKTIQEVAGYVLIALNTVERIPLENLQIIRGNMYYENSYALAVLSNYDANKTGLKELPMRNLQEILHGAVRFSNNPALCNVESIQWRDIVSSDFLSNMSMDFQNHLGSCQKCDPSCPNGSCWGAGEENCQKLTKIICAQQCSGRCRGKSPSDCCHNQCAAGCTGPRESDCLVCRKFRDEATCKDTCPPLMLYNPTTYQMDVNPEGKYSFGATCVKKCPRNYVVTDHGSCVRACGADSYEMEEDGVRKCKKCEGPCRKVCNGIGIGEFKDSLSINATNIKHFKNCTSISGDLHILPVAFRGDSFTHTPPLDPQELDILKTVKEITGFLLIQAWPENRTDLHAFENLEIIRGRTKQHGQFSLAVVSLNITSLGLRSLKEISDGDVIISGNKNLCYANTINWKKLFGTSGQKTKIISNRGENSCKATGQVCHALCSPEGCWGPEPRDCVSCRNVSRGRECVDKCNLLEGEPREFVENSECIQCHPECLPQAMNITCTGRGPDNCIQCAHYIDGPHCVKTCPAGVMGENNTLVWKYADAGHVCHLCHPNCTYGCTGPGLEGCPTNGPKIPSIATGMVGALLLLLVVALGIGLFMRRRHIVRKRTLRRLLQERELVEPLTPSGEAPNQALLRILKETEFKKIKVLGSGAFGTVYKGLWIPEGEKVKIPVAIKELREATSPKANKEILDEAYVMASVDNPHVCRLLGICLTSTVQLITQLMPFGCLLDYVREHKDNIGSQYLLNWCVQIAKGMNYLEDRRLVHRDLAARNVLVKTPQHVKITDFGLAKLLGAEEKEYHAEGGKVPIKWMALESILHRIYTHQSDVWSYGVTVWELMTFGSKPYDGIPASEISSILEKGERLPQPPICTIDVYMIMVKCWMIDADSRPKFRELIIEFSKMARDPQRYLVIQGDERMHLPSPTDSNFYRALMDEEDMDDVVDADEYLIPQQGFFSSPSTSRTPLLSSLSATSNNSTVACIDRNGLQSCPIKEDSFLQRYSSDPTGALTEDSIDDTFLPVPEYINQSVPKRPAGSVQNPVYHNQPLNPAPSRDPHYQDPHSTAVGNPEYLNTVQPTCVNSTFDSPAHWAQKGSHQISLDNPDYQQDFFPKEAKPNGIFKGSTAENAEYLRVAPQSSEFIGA
# [32] = test system: MOLT4 cells; experiment: Annexin V-FITC/PI apoptosis assay; format: cell-based
# [33] = molecular target: T1, COX-2 (Ovis aries, UniProt P79208); experiment: Colorimetric COX; format: biochemical, ovine
# T1 sequence (P79208 17-603): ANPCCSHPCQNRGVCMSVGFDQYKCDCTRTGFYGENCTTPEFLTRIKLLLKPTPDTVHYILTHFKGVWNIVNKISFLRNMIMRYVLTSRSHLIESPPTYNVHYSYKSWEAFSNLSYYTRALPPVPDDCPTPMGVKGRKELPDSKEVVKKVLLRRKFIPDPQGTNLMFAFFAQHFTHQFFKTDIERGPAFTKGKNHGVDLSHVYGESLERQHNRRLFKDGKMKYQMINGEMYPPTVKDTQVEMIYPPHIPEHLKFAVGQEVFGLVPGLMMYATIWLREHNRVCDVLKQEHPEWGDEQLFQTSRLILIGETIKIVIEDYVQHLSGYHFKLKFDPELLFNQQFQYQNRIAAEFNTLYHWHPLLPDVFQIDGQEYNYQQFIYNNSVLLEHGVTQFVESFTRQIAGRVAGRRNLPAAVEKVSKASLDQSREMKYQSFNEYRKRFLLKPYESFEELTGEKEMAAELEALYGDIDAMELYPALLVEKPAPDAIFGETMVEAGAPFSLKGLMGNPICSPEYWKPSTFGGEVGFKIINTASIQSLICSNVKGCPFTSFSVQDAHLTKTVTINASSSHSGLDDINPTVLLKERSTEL
# [34] = full panel mean-graph midpoint, listed as erlotinib
compound,measurement,setting,value
"C#Cc1cccc(Nc2ncnc3cc(OCCOC)c(OCCOC)cc23)c1 [Erlotinib, reference compound]",GI50,"[1]; Homo sapiens, Hs-578T",6.3 µM
same,GI50,[2]; Homo sapiens,150 nM
same,GI50,[3]; Homo sapiens,390 nM
same,GI50,[4]; Homo sapiens,5.01 µM
same,GI50,[5]; Homo sapiens,1000 nM
same,GI50,[6]; Homo sapiens,31.6 µM
same,GI50,[7]; Homo sapiens,6.3 µM
same,GI50,[8],1580 nM
same,GI50,[9]; Homo sapiens,5.01 µM
same,GI50,[10]; Homo sapiens,19.9 µM
same,GI50,[11]; Homo sapiens,15.8 µM
same,CC50,"[12]; Homo sapiens, read-out: LC50",93.3 µM
same,GI50,"[12]; Homo sapiens, subpanel value, Melanoma",23.7 µM
same,GI50,"[12]; subpanel value, Melanoma",23.7 µM
same,TGI,"[12]; subpanel value, Melanoma",77.89 µM
same,CC50,"[13]; Homo sapiens, read-out: LC50",96.4 µM
same,GI50,"[13]; Homo sapiens, subpanel value, Breast cancer",24.7 µM
same,GI50,"[13]; subpanel value, Breast cancer",24.7 µM
same,TGI,"[13]; subpanel value, Breast cancer",70.53 µM
same,GI50,"[14]; Homo sapiens, KM12",63.1 µM
same,GI50,[15]; Homo sapiens,6.3 µM
same,GI50,[16]; Homo sapiens,15.8 µM
same,CC50,"[17]; Homo sapiens, read-out: LC50",89.2 µM
same,GI50,"[17]; Homo sapiens, subpanel value, Renal cancer",2500 nM
same,GI50,"[17]; subpanel value, Renal cancer",2460 nM
same,TGI,"[17]; subpanel value, Renal cancer",42.59 µM
same,GI50,[18]; Homo sapiens,5.01 µM
same,GI50,[19]; Homo sapiens,100 µM
same,GI50,[20]; Homo sapiens,1580 nM
same,TGI MG_MID,[21]; full panel mean-graph midpoint,66.3 µM
same,TGI MG_MID,[21]; [34],14.3 µM
same,GI50,"[21]; read-out: GI50 MG_MID, full panel mean-graph midpoint",7.68 µM
same,CC50,[21]; full panel mean-graph midpoint,95.6 µM
same,CC50,[21]; [34],14.3 µM
same,GI50,"[22]; Homo sapiens, A549",7.94 µM
same,GI50,[23]; Homo sapiens,5.01 µM
same,CC50,"[24]; Homo sapiens, read-out: LC50",> 100 µM
same,GI50,"[24]; Homo sapiens, subpanel value, Leukemia",27.9 µM
same,GI50,"[24]; subpanel value, Leukemia",27.9 µM
same,TGI,"[24]; subpanel value, Leukemia",96.57 µM
same,CC50,"[25]; Homo sapiens, read-out: LC50",97.1 µM
same,GI50,"[25]; subpanel value, Ovarian cancer",5.52 µM
same,TGI,"[25]; subpanel value, Ovarian cancer",74.41 µM
"NS(=O)(=O)c1ccc(Cn2c(SCC(=O)NN=Cc3ccccc3O)nc3ccccc3c2=O)cc1 [Compound 6, 4-((2-((2-(2-(2-Hydroxybenzylidene)hydrazineyl)-2-oxoethyl)thio)-4-oxoquinazolin-3(4H)-yl)methyl)benzenesulfonamide]",GI %,"[1]; 10.0 μM one dose, HS-578T",29%
same,GI %,[2]; 10.0 μM one dose,28%
same,GI %,[3]; 10.0 μM one dose,37%
same,GI %,[4]; 10.0 μM one dose,80%
same,GI %,[5]; 10.0 μM one dose,101%
same,GI %,[6]; 10.0 μM one dose,43%
same,IC50,[26],44.1 nM
same,GI %,[7]; 10.0 μM one dose,58%
same,GI %,[27],60%
same,GI %,[9]; 10.0 μM one dose,29%
same,GI %,[10]; 10.0 μM one dose,57%
same,GI %,[11]; 10.0 μM one dose,42%
same,GI %,[28],64%
same,%G0-G1,[29],89.04%
same,%G2-M,[29],1.40%
same,IC50,[30],96.1 nM
same,GI %,"[14]; 10.0 μM one dose, KM-12",61%
same,IC50,[31],51.5 nM
same,GI %,[15]; 10.0 μM one dose,28%
same,GI %,[16]; 10.0 μM one dose,77%
same,GI %,[18]; 10.0 μM one dose,84%
same,GI %,[19]; 10.0 μM one dose,30%
same,GI %,[20]; 10.0 μM one dose,28%
same,Apoptosis Early,[32],19.2% and 19.22%
same,Apoptosis Total,[32],35.06%
same,Necrosis,[32],3.23%
same,MG% (mean growth percent),"[21]; 10.0 μM one dose, 59 cell lines",55.2% and 55.22%
same,GI %,"[22]; 10.0 μM one dose, A549/ATCC",31%
same,GI %,[23]; 10.0 μM one dose,51%
same,IC50,[33],4.47 ± 0.09 µM
